From patent US7049314B2, “Cyclopentyl indole derivatives” (Bristol-Myers Squibb Company, priority 2002, dated 2006)
Read-outs that look alike come from different tables or passages of the source.

Key:
[1] = target: T1, human serotonin transporters (Homo sapiens, UniProt P31645); assay: Serotonin Transporter Binding Assay ([3H]-citalopram displacement, HEK-hSERT cell membranes)
T1 construct: expressed in transfected cells
Description: HEK-293 cells that stably express human serotonin transporters (HEK-hSERT cells) were grown at 37° C. in 5% CO2 as a monolayer in medium consisting of EMEM supplemented with 10% fetal bovine serum and G418 sulfate (500 μg/mL). To prepare membranes for radioligand binding experiments, cells were rinsed twice with phosphate-buffered saline (138 mM NaCl, 4.1 mM KCl, 5.1 mM Na2PO4, 1.5 mM […], 11.1 mM glucose, pH 7.4). Cells were transferred from plates to polypropylene tubes (16×100 mm), centrifuged at 1,200×g for 5 min and were frozen at −80° C. until assay. Following centrifugation, pellets were resuspended by homogenization in buffer consisting of 50 mM Tris (pH 7.7 at 25° C.), 120 mM NaCl and 5 mM KCl and then centrifuged at 32,000×g for 10 min. Following centrifugation, supernatants were discarded and pellets were resuspended in buffer consisting of 50 mM Tris (pH 7.4 at 25° C.), 150 mM NaCl and 5 mM KCl. Membrane homogenates (200 μl/plate) were incubated with 1 nM [^3H]-citalopram (specific activity=85 Ci/mMol) and increasing concentrations of test compounds for 1 hr at 25° C. in a total volume of 250 μl. The assay buffer consisted of 50 mM Tris (pH 7.4 at 25° C.), 120 mM NaCl and 5 mM KCl (pH 7.4 with conc. HCl). Plates were incubated for 1 hr at 25° C., then filtered through 0.5% PEI treated Whatman GF/B filters using a Brandel cell harvester. Filters were washed three times with 3 mL of ice-cold tris wash buffer. Non-specific binding was defined with 10 μM fluoxetine. Amount of radioligand bound in the presence and absence of competitor was analyzed by plotting (−)log drug concentration versus the amount of radioligand specifically bound. The midpoint of the displacement curve (IC50, nM), signifies the potency. Ki values were calculated using the method of Cheng and Prusoff (1973).

[2] = target: T2, human norepinephrine transporters (Homo sapiens, UniProt P23975); assay: Norepinephrine Transporter Binding Assay ([3H]-nisoxetine displacement, hNET cell membranes); details: 2.7 nM [3H]-nisoxetine, 1 hr at 4° C., read-out: NE Reuptake (binding Ki)
T2 construct: host or cells: MDCK cells (also 'HEK-hNET cells'), membrane homogenates
Description: MDCK cells that stably express human norepinephrine transporters (HEK-hNET cells) were supplied by Receptor Biology, Inc. Pellets were resuspended by homogenization in buffer consisting of 50 mM Tris (pH 7.4 at 25° C.), 120 mM NaCl and 5 mM KCl. Membrane homogenates (200 μl/well, 8 ug protein) were incubated with 2.7 nM [^3H]-nisoxetine (specific activity=80 Ci/mMol) and increasing concentrations of test compounds for 1 hr at 4° C. in a total volume of 250 μl. The assay buffer consisted of 50 mM Tris (pH 7.4 at 25° C.), 120 mM NaCl and 5 mM KCl (pH 7.4 with conc. HCl). Plates were incubated for 1 hr at 4° C., then filtered through 0.5% PEI treated Whatman GF/B filters using a Brandel cell harvester. Filters were washed three times with 3 mL of ice-cold tris wash buffer. Non-specific binding was defined with 10 μM desipramine. Amount of radioligand bound in the presence and absence of competitor was analyzed by plotting (−)log drug concentration versus the amount of radioligand specifically bound. The midpoint of the displacement curve (IC50, nM), signifies the potency. Ki values were calculated using the method of Cheng and Prusoff (1973).

[3] = HEK-hSERT membranes, 1 nM [3H]-citalopram, 1 hr at 25° C., read-out: SERT (binding Ki)

T1 sequence (P31645 whole entry): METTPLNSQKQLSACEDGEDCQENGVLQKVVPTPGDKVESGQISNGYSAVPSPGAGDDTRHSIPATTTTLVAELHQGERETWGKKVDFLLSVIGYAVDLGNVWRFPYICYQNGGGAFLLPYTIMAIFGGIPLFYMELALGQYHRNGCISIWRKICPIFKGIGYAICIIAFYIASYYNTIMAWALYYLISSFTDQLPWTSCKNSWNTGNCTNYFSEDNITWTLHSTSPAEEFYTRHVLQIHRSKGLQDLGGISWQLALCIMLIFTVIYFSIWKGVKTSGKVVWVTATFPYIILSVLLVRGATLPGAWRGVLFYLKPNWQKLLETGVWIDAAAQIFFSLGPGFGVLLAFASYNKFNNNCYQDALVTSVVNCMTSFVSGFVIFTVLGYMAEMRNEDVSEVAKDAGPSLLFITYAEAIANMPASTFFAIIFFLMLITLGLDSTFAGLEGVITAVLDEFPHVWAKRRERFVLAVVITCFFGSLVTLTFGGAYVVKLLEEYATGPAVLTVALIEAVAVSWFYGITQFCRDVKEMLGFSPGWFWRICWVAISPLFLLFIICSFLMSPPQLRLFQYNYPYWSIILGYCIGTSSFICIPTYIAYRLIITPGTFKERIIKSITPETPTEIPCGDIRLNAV
T2 sequence (P23975 whole entry): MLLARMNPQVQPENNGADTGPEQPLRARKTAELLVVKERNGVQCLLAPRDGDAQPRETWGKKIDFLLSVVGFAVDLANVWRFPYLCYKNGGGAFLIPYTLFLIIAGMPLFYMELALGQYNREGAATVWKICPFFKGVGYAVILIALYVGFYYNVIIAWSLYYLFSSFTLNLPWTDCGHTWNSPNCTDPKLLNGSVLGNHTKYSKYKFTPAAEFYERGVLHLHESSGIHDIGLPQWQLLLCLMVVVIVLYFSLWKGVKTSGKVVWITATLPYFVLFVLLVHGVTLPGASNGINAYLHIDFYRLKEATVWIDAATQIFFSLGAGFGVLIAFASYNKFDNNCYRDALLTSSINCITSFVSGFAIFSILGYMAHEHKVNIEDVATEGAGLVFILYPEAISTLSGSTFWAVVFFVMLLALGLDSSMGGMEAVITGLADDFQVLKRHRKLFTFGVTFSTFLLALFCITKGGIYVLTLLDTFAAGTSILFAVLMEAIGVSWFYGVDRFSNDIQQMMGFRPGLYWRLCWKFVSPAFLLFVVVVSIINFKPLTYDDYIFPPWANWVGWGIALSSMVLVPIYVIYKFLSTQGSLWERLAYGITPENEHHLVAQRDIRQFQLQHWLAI

## CNC1CCC(c2c[nH]c3ccc(C#N)cc23)C1 (centres unmarked) [Compound 1, 3-(3-Methylamino-cyclopentyl)-1H-indole-5-carbonitrile]
[1]
  Ki: 1 to 10 nM
[2]
  Ki: > 1000 nM

## CCNC1CCC(c2c[nH]c3ccc(C#N)cc23)C1 (centres unmarked) [Compound 2, 3-(3-Ethylamino-cyclopentyl)-1H-indole-5-carbonitrile]
[1]
  Ki: 1 to 10 nM
[2]
  Ki: > 1000 nM

## CN(C)C1CCC(c2c[nH]c3ccc(C#N)cc23)C1 (centres unmarked) [Compound 3, 3-(3-Dimethylamino-cyclopentyl)-1H-indole-5-carbonitrile]
[1]; [3]
  Ki: < 1 nM
[2]
  Ki: > 1000 nM

## CCN(C)C1CCC(c2c[nH]c3ccc(C#N)cc23)C1 (centres unmarked) [Compound 4, 3-[3-(Ethyl-methyl-amino)-cyclopentyl]-1H-indole-5-carbonitrile]
[1]; [3]
  Ki: 1 to 10 nM
[2]
  Ki: > 1000 nM

## CCN(CC)C1CCC(c2c[nH]c3ccc(C#N)cc23)C1 (centres unmarked) [Compound 5, 3-(3-Diethylamino-cyclopentyl)-1H-indole-5-carbonitrile]
[1]; [3]
  Ki: 1 to 10 nM
[2]
  Ki: > 1000 nM

## N#Cc1ccc2[nH]cc(C3CCC(N4CCCC4)C3)c2c1 (centres unmarked) [Compound 6, 3-(3-Pyrrolidin-1-yl-cyclopentyl)-1H-indole-5-carbonitrile]
[1]
  Ki: 1 to 10 nM
[2]
  Ki: > 1000 nM

## N#Cc1ccc2[nH]cc(C3CCC(N4Cc5ccccc5C4)C3)c2c1 (centres unmarked) [Compound 7, 3-[3-(1,3-Dihydro-isoindol-2-yl)-cyclopentyl]-1H-indole-5-carbonitrile]
[1]; [3]
  Ki: 1 to 10 nM
[2]
  Ki: > 1000 nM

## N#Cc1ccc2[nH]cc(C3CCC(N4CCc5ccccc5C4)C3)c2c1 (centres unmarked) [Compound 8, 3-[3-(3,4-Dihydro-1H-isoquinolin-2-yl)-cyclopentyl]-1H-indole-5-carbonitrile]
[1]; [3]
  Ki: 1 to 10 nM
[2]
  Ki: 100 to 1000 nM

## N#Cc1ccc2[nH]cc(C3CCC(NCCc4ccccc4)C3)c2c1 (centres unmarked) [Compound 9, 3-(3-Phenethylamino-cyclopentyl)-1H-indole-5-carbonitrile]
[1]; [3]
  Ki: 1 to 10 nM
[2]
  Ki: 100 to 1000 nM

## CN(CCc1ccccc1)C1CCC(c2c[nH]c3ccc(C#N)cc23)C1 (centres unmarked) [Compound 10, 3-[3-(Methyl-phenethyl-amino)-cyclopentyl]-1H-indole-5-carbonitrile]
[1]; [3]
  Ki: 1 to 10 nM
[2]
  Ki: 100 to 1000 nM

## N#Cc1ccc2[nH]cc(C3CCC(N4CCOCC4)C3)c2c1 (centres unmarked) [Compound 11, 3-(3-Morpholin-4-yl-cyclopentyl)-1H-indole-5-carbonitrile]
[1]
  Ki: < 1 nM
[2]
  Ki: > 1000 nM

## CN(Cc1ccccc1)C1CCC(c2c[nH]c3ccc(C#N)cc23)C1 (centres unmarked) [Compound 12, 3-[3-(Benzyl-methyl-amino)-cyclopentyl]-1H-indole-5-carbonitrile]
[1]; [3]
  Ki: 1 to 10 nM
[2]
  Ki: 100 to 1000 nM

## N#Cc1ccc2[nH]cc(C3CCC(NCc4ccccc4)C3)c2c1 (centres unmarked) [Compound 13, 3-(3-Benzylamino-cyclopentyl)-1H-indole-5-carbonitrile]
[1]; [3]
  Ki: 1 to 10 nM
[2]
  Ki: 100 to 1000 nM

## N#Cc1ccc2[nH]cc(C3CCC(N4CCCCC4)C3)c2c1 (centres unmarked) [Compound 14, 3-(3-Piperidin-1-yl-cyclopentyl)-1H-indole-5-carbonitrile]
[1]
  Ki: < 1 nM
[2]
  Ki: > 1000 nM

## CCCN(CCC)C1CCC(c2c[nH]c3ccc(C#N)cc23)C1 (centres unmarked) [Compound 15, 3-(3-Dipropylamino-cyclopentyl)-1H-indole-5-carbonitrile]
[1]; [3]
  Ki: 1 to 10 nM
[2]
  Ki: > 1000 nM

## CCCNC1CCC(c2c[nH]c3ccc(C#N)cc23)C1 (centres unmarked) [Compound 16, 3-(3-Propylamino-cyclopentyl)-1H-indole-5-carbonitrile]
[1]
  Ki: < 1 nM
[2]
  Ki: > 1000 nM

## CNC1CCC(c2cn(C)c3ccc(C#N)cc23)C1 (centres unmarked) [Compound 17, 1-Methyl-3-(3-methylamino-cyclopentyl)-1H-indole-5-carbonitrile]
[1]
  Ki: 1 to 10 nM
[2]
  Ki: > 1000 nM

## CCNC1CCC(c2cn(C)c3ccc(C#N)cc23)C1 (centres unmarked) [Compound 18, 3-(3-Ethylamino-cyclopentyl)-1-methyl-1H-indole-5-carbonitrile]
[1]
  Ki: < 1 nM
[2]
  Ki: > 1000 nM

## Cn1cc(C2CCC(NCc3ccccc3)C2)c2cc(C#N)ccc21 (centres unmarked) [Compound 19, 3-(3-Benzylamino-cyclopentyl)-1-methyl-1H-indole-5-carbonitrile]
[1]; [3]
  Ki: 1 to 10 nM
[2]
  Ki: 100 to 1000 nM

## Cn1cc(C2CCC(NCCc3ccccc3)C2)c2cc(C#N)ccc21 (centres unmarked) [Compound 20, 1-Methyl-3-(3-phenethylamino-cyclopentyl)-1H-indole-5-carbonitrile]
[1]; [3]
  Ki: 1 to 10 nM
[2]
  Ki: 100 to 1000 nM

## CN(C)C1CCC(c2cn(C)c3ccc(C#N)cc23)C1 (centres unmarked) [Compound 21, 3-(3-Dimethylamino-cyclopentyl)-1-methyl-1H-indole-5-carbonitrile]
[1]
  Ki: 1 to 10 nM
[2]
  Ki: > 1000 nM

## CCN(C)C1CCC(c2cn(C)c3ccc(C#N)cc23)C1 (centres unmarked) [Compound 22, 3-[3-(Ethyl-methyl-amino)-cyclopentyl]-1-methyl-1H-indole-5-carbonitrile]
[1]
  Ki: 1 to 10 nM
[2]
  Ki: > 1000 nM

## CCN(CC)C1CCC(c2cn(C)c3ccc(C#N)cc23)C1 (centres unmarked) [Compound 23, 3-(3-Diethylamino-cyclopentyl)-1-methyl-1H-indole-5-carbonitrile]
[1]
  Ki: < 1 nM
[2]
  Ki: > 1000 nM

## CN(C)C1CCC(c2c[nH]c3cccc(F)c23)C1 (centres unmarked) [Compound 37, 3-(4-Fluoro-1H-indol-3-yl)-cyclopentyl-dimethyl-amine]
[1]; [3]
  Ki: 10 to 100 nM

## CN(C)C1CCC(c2c[nH]c3cccc(Br)c23)C1 (centres unmarked) [Compound 38, 3-(4-Bromo-1H-indol-3-yl)-cyclopentyl-dimethyl-amine]
[1]; [3]
  Ki: 1 to 10 nM

## CN(C)C1CCC(c2c[nH]c3ccc(Cl)cc23)C1 (centres unmarked) [Compound 39, 3-(5-Chloro-1H-indol-3-yl)-cyclopentyl-dimethyl-amine]
[1]; [3]
  Ki: 1 to 10 nM

## CN(C)C1CCC(c2c[nH]c3ccc(Br)cc23)C1 (centres unmarked) [Compound 40, 3-(5-Bromo-1H-indol-3-yl)-cyclopentyl-dimethyl-amine]
[1]; [3]
  Ki: 1 to 10 nM

## CN(C)C1CCC(c2c[nH]c3ccc(I)cc23)C1 (centres unmarked) [Compound 41, 3-(5-Iodo-1H-indol-3-yl)-cyclopentyl-dimethyl-amine]
[1]; [3]
  Ki: 10 to 100 nM

## CN(C)C1CCC(c2c[nH]c3cc(F)ccc23)C1 (centres unmarked) [Compound 42, 3-(6-Fluoro-1H-indol-3-yl)-cyclopentyl-dimethyl-amine]
[1]; [3]
  Ki: 1 to 10 nM

## CN(C)C1CCC(c2c[nH]c3cc(Cl)ccc23)C1 (centres unmarked) [Compound 43, 3-(6-Chloro-1H-indol-3-yl)-cyclopentyl-dimethyl-amine]
[1]; [3]
  Ki: 1 to 10 nM

## CN(C)C1CCC(c2c[nH]c3cc(Br)ccc23)C1 (centres unmarked) [Compound 44, 3-(6-Bromo-1H-indol-3-yl)-cyclopentyl-dimethyl-amine]
[1]; [3]
  Ki: 1 to 10 nM

## CN(C)C1CCC(c2c[nH]c3c(F)cccc23)C1 (centres unmarked) [Compound 45, 3-(7-Fluoro-1H-indol-3-yl)-cyclopentyl-dimethyl-amine]
[1]; [3]
  Ki: 1 to 10 nM

## CN(C)C1CCC(c2c[nH]c3c(Cl)cccc23)C1 (centres unmarked) [Compound 46, 3-(7-Chloro-1H-indol-3-yl)-cyclopentyl-dimethyl-amine]
[1]; [3]
  Ki: < 1 nM

## CN(C)C1CCC(c2c[nH]c3c(Br)cccc23)C1 (centres unmarked) [Compound 47, 3-(7-Bromo-1H-indol-3-yl)-cyclopentyl-dimethyl-amine]
[1]; [3]
  Ki: 1 to 10 nM

## N#Cc1ccc2[nH]cc([C@H]3CCC(N)C3)c2c1 (stereo partly drawn) [Compound 60, (1S)-3-(3-Amino-cyclopentyl)-1H-indole-05-carbonitrile]
[1]; [3]
  Ki: 10 to 100 nM

## N#Cc1ccc2[nH]cc([C@H]3CCC(NC4CC[C@H](c5c[nH]c6ccc(C#N)cc56)C4)C3)c2c1 (stereo partly drawn) [Compound 61, (3S,3′S)-bis-(3-(5-cyano-1H-indol-3-yl)cyclopentyl)amine]
[1]; [3]
  Ki: 1 to 10 nM
